Source: PubChem BioAssay (NCI)
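Results reflect a 48-hour exposure of cells in 96-well plates to compound at five concentrations. Abbreviation: GI50, concentration required for 50% inhibition of growth. TGI marks complete inhibition of growth.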

Columns and labels:
Test in all cases: NCI anticancer screen, dose series, 48 h
[1] = tested on: HL-60(TB) leukemia
[2] = tested on: UACC-62 melanoma
[3] = tested on: ACHN renal
[4] = tested on: UO-31 renal
[5] = tested on: NCI-H460 lung
[6] = tested on: RXF 393 renal
[7] = tested on: A498 renal

SMILES	TGI [1] [µM]	TGI [2] [µM]	TGI [3] [µM]	TGI [4] [µM]	TGI [5] [µM]	TGI [6] [µM]	TGI [7] [µM]	GI50 [7] [µM]	GI50 [1] [µM]	GI50 [2] [µM]	GI50 [3] [µM]	GI50 [4] [µM]	GI50 [5] [µM]	GI50 [6] [µM]
N#C/C(=C/c1cccnc1)C(=O)c1ccccc1	> 100	> 100	> 100	> 100	> 100	> 100								
O=C(CC/C(C/C(=N/O)c1ccc(F)cc1)=N/O)N(Cc1ccccc1)Cc1ccccc1	> 100	> 100	> 100	> 100	> 100	> 100	> 100							
CC1C=C(OC(=O)c2ccccc2)C(=O)C(n2cc(F)c(=O)n(C(=O)c3ccccc3)c2=O)O1 (stereo not given)	50.1	98.6	> 100	> 100	> 100	81.7								
Cc1ccc(S(=O)(=O)N2CCC3(C(/C=C/c4ccccc4)=Nc4ccccc43)C2c2ccccc2)cc1 (stereo not given)	> 100	> 100	> 100	> 100	> 100	> 100	> 100							
O=C1CC2CCCCC2=C1O (stereo not given)	> 100	> 100	> 100	> 100	> 100	> 100	> 100							
CN(C)c1ccc(/C=C2\CNC/C(=C\c3ccc(N(C)C)cc3)C2=O)cc1		> 100	54	> 100	29.4	44	39.5							
Cc1cc(N(CCC#N)CCC#N)ccc1/C=C(\NC(=O)/C=C/c1ccccc1)NC(=O)Nc1ccc(Cl)cc1	> 100	> 100	> 100	> 100	> 100	52.6	> 100							
CCCCCCCCCCCCCC/C(C(=O)OC)=C(/O)C(=O)OCC	> 100	65.1	> 100	53.5	> 100	> 100	> 100							
COc1ccc(NC(=O)C(=O)NNC(=O)c2sc(NNC(C)=O)nc2C)c([N+](=O)[O-])c1	> 100	> 100	> 100	> 100	> 100		> 100							
CC1CCCC(C(O)CC2CC(=O)N(c3ccccc3)C(=O)C2)C1=O (stereo not given)	> 100	> 100	> 100	> 100	> 100	> 100	> 100							
CC(=O)O[C@H]1[C@@H]2[C@@H]3[C@@H](C[C@H]1C)[C@@H](C)CO[C@@]1(C)CC/C=C(/C)C[C@@H]2O[C@@H]31	> 100	> 100	> 100	> 100	> 100	> 100	> 100							
CC1=C(C(=O)Nc2ccccc2C)C(c2ccc([N+](=O)[O-])cc2)C(C(=O)Nc2ccccc2C)=C(C)N1	47	> 100	> 100	> 100	> 100	88.2	80.5							
C=C(CN(CC(=C)C(=O)c1ccccc1)C(C)(C)C)C(=O)c1ccccc1	9.7	32.4	21.3	24.3	43.2	18.7	32.9							
Cc1ccc(NC(=O)CC(=O)n2nc(-c3ccccc3)c(N=Nc3ccc(Cl)cc3)c2-c2ccccc2)cc1	17.7	> 100	> 100	> 100	> 100		> 100							
CC12O[C@H](c3ccccc3)[C@H](c3ccccc3)N1C(=O)C1(C(=O)OCc3ccccc3)CC12 (stereo not given in full)	> 100	> 100	> 100	> 100	> 100		> 100							
FC(F)(F)c1ccc(C=NC23CC4CC(CC(C4)C2)C3)cc1	> 100	> 100	> 100	> 100	> 100	> 100	> 100							
CCc1cccc(C(C)C)c1NC(=O)C(=O)C(C(=O)C(=O)OC)c1nc2ccccc2[nH]c1=O (stereo not given)	> 100	> 100	> 100	> 100	> 100	> 100	> 100							
N/N=C1\c2ccccc2C2/C(=N\N)c3ccccc3C12 (stereo not given)	> 100	> 100	> 100		> 100	> 100								
C=CCNC1=C(C(=O)OCC)C(=O)CO1	> 100	> 100	> 100	> 100	> 100	> 100	> 100							
CCC(C(=O)[O-])C(=O)[O-].CCC(C(=O)[O-])C(=O)[O-].N.N.NCCCCCN.[Pt+4].[Pt+4]	> 100	> 100	> 100	> 100	> 100	> 100	> 100	> 100	43.1	38.3	72.6	> 100	21.3	> 100
Cc1ccc(S(=O)(=O)CNC(=S)CCCC(=S)NCS(=O)(=O)c2ccc(C)cc2)cc1	> 100	> 100		> 100	> 100	> 100	> 100							
